Earlier results, collected in patent US9060929B2, “Alprostadil for treatment of premature ejaculation” (Nexmed Holdings, Inc., priority 2003, dated 2015).
Read-outs that look alike come from different tables or passages of the source.

Experiments:
[1] = test system: men with premature ejaculation and/or erectile dysfunction
patients with PE = details: 6 months

Structure (SMILES): CNCCC(Oc1ccc(C(F)(F)F)cc1)c1ccccc1 (stereo not shown) [fluoxetine]
- latency to ejaculation ([1]; PE and PE+ED group taken together, p=0.007): increased significantly
- latency to ejaculation ([1]; PE+ED group, p=0.03): increased significantly

Structure (SMILES): CN[C@H]1CC[C@@H](c2ccc(Cl)c(Cl)c2)c2ccccc21 [sertraline]
- ejaculation latency after treatment (patients with PE; PE group, 50 mg sertraline four hours before sex): 247.2 s
- ejaculation latency after treatment (patients with PE; PE+ED group (sildenafil-treated), 50 mg sertraline): 111.6 s
